From PMC5988308, “Rhodanine derivatives as potent anti-HIV and anti-HSV microbicides” (PLoS ONE, 2018)

What was measured:
[1] = Storage stability and rheological characterization of gel; assay type: physicochemical; conditions: 50 μM, 25°C in the dark
Procedure: All the semi-solid formulations were prepared adding at the pre-gel solution reported above hydroxyethyl cellulose (HEC) (1.8% w/v). In all samples, 0.2% v/v propionic acid was added to aqueous solution in order to preserve form bacteria and mold contamination. HEC was dispersed in the pre-gel solution at 25°C under magnetic stirring, overnight. Gel containing compound 2 was stored at 25°C in the dark. At predetermined data points, the formulations were visually inspected to evidence aggregate formations and the pH was measured. Rheological evaluations were performed using a rotational viscometer (Bohlin Model Visco 88, Bohlin Instruments, UK). Appropriate measuring spindles (C14 DIN) were used during viscosity measurements. Samples were loaded into the cup and allowed to equilibrate for 10 min at desired temperature (25 ± 0.5°C) and apparent viscosity (mPa s) was determined using a shear rate of 552 s^-1 over a 1 month period.

NL4.3 HIV strain = experiment: Antiviral activity in microbicide gel formulation, transwell experiment, TZM-bl cells; assay type: cell-based, HIV-1; conditions: Human immunodeficiency virus 1, gel at 50%
Procedure: All the semi-solid formulations were prepared adding at the pre-gel solution reported above hydroxyethyl cellulose (HEC) (1.8% w/v). In all samples, 0.2% v/v propionic acid was added to aqueous solution in order to preserve form bacteria and mold contamination. HEC was dispersed in the pre-gel solution at 25°C under magnetic stirring, overnight.
Antiviral activity of compound 2 on NL4.3 HIV strain was evaluated also in a gel formulation. To reproduce more physiological conditions, TZM-bl cells were seeded into transwells and the gel was applied onto the cell monolayer at 50% fixed concentration with serial drug dilutions as previously described. Briefly, 4x10^4 TZM-bl cells were plated into each transwell apical chamber of a 24-well plate (pore size 3μm and diameter 6,5 mm, Corning) containing medium in the bottom plate and cultured overnight. For efficacy testing, 60 TCID50 of virus was added to each apical well in the presence of 100 μL of compound 2 gel, tenofovir gel or blank gel at the final drug concentrations of 25μM, 10 μM and 5 μM. Inhibition of infection was determined as previously based on deviations from blank gel.

HIV-1 AD8 [2] = experiment: Inhibition of antiviral activity by fetal bovine serum (TZM-bl, AD8); assay type: cell-based; conditions: FBS 0% to 10%
Procedure: To evaluate the binding of compounds to plasma proteins also in a cell based assay, the infection with the HIV laboratory strain AD8 was performed in absence or in presence of different concentrations of Fetal Bovine Serum (FBS): 2%, 5% and 10%. The representative compound 2 was pre-incubated at different concentrations ranging from 10 μM to 3.2 nM with 300 TCID50 /mL of AD8 in DMEM supplemented with 50 μg/mL penicillin, 50 μg/mL streptomycin, 30 μg/mL DEAE-dextran and FBS at the concentration described above. Maraviroc was used as control. After an hour the mixture was added to 40.000 TZM-bl cells/well plated in a 96-well plate and after two days the infection was quantified using a CPRG assay (Roche) as previously described.

[3] = system: recombinant HIV-1 integrase Y143R; experiment: Antiviral activity on human CD4+ T lymphocytes, integrase mutant Y143R; assay type: cell-based; conditions: Human immunodeficiency virus 1, read-out: Y143R EC50
[4] = system: HSV-2 acyclovir resistant; experiment: HSV-2 acyclovir resistant plaque reduction assay on Vero cells; assay type: cell-based; conditions: Human alphaherpesvirus 2, Vero, read-out: HSV-2 acyclovir resistant EC50
Procedure: Clinical isolates of HSV-1 and HSV-2 were kindly provided by Prof. M. Pistello, University of Pisa, Italy. HSV-1 and HSV-2 strains were propagated and titrated by plaque assay on Vero cells. A HSV-2 strain with phenotypic resistance to acyclovir was generated by serial passage in the presence of increasing concentrations of acyclovir, as previously described.
The effect of the rhodanine derivatives on HSV infection was evaluated by plaque reduction assay. Vero cells were pre-plated 24 h in advance in 24-well plates at a density of […]. Increasing concentrations of compounds were mixed with HSV-2 (MOI 0.001 pfu/cell) or HSV-2 acyclovir resistant (MOI 0.001) or HSV-1 (MOI 0.0005) or and incubated for 1 hour at 37°C. The mixtures were subsequently added to the cells, which were then incubated at 37°C for 2 h. […] After further incubation at 37°C for 24 h (HSV-2 and HSV-2 R Acy) or 48 h (HSV-1), cells were fixed and stained with 0.1% crystal violet in 20% ethanol and viral plaques counted. […] The selectivity index (SI) was calculated by dividing the CC50 by the EC50 value.
All results are presented as the mean values from three independent experiments. The EC50 values for inhibition curves were calculated by regression analysis using the software GraphPad Prism (GraphPad Software, San Diego, California, U.S.A.) by fitting a variable slope-sigmoidal dose–response curve. […]

HIV-1 AD8 WT = experiment: Antiviral activity on human CD4+ T lymphocytes, AD8 WT; assay type: cell-based; conditions: Human immunodeficiency virus 1; human CD4+ T lymphocytes; read-out: AD8 WT EC50
Procedure: The antiviral activity and cytotoxicity of compounds 2, 9e and 9f was tested also on freshly purified human CD4^+ T lymphocytes obtained from healthy blood donors (informed consent available) as described previously on HIV laboratory strain NL4.3 and AD8 [33, 34].

[5] = system: recombinant HIV-1 integrase Q148H, G140S; experiment: Antiviral activity on human CD4+ T lymphocytes, integrase mutant Q148H, G140S; assay type: cell-based; conditions: Human immunodeficiency virus 1, read-out: Q148H, G140S EC50
HIV-1 AD8 [6] = experiment: Inhibition of antiviral activity by purified bovine serum albumin (TZM-bl, AD8); assay type: cell-based
Procedure: To confirm the binding of compound 2 to serum albumin, infection was performed in presence of different concentrations of purified bovine serum albumin (BSA, Sigma Aldrich) starting from the concentration that is usually present in FBS serum (35 mg/mL, 1X) and increasing to a five-fold concentration (175 mg/mL) up to a ten-fold concentration (350 mg/mL). […] After one hour, the mixture was added to 40.000 TZM-bl cells/well plated in DMEM supplemented with 50 μg/mL penicillin, 50 μg/mL streptomycin, 30 μg/mL DEAE-dextran and 10% FBS in a 96-well plate. After two days the infection was evaluated through a CPRG assay.

SMILES: O=C(O)c1ccc(-c2ccc(/C=C3\SC(=S)N(Cc4ccc(Cl)cc4)C3=O)o2)cc1O [Compound 2]
- recovery after 1 month of storage [1]: about 100%
- EC50 (NL4.3 HIV strain): 13000 nM
- effect of FBS concentration on antiviral activity (HIV-1 AD8 [2]): progressive loss of activity
- EC50 [3]: 8 ± 3 nM
- EC50 [4]: 10.7 ± 6.34 nM
- EC50 (HIV-1 AD8 WT): 11 ± 1 nM
- EC50 [5]: 9 ± 2 nM
- reduction of antiviral activity with physiological BSA, compound at 400 nM (HIV-1 AD8 [6]; 1X = 35 mg/mL BSA, 400 nM): about 50%
- loss of antiviral activity with physiological BSA, compound at 2 μM (HIV-1 AD8 [6]; 1X = 35 mg/mL BSA, 2 μM): 20%
- antiviral activity with BSA concentration increased 5 to 10 folds (HIV-1 AD8 [6]; 175-350 mg/mL BSA, 400 nM): complete loss of activity
